Entries after “also recorded” stand apart in the source; their conditions may differ. Like-named read-outs stand apart in the source and are kept apart here.
Key:
NF-κ B = experiment: Inhibitory activity of NF-κ B activation, luciferase reporter assay in HepG2 under TNF-α stimulation; type: cell-based, human
Method in brief: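 Readout is firefly luciferase luminescence, expressed as inhibition versus compound-free wells. Before this, HepG2 cells carrying a transiently transfected 5×NF-κB-site luciferase plasmid (6–24 h post-transfection) received test compound plus TNF-α (40 ng/ml) for 4 h.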

IL-6 = experiment: Inhibition of IL-6 production by TNFα stimulation in synovial fibroblasts derived from a rheumatoid patient (ELISA); type: cell-based, human; conditions: for IC50: synovial fibroblasts, 10 ng/ml TNFα, 3 days, read-out: Inhibition against Mediator Release IC50(nM) IL-6
Experimental: (§1) Synovial fibroblasts (Human Synoviocyte (RA-Positive), Toyobo, T4040-05) were cultured for 3 days in a medium containing 10 ng/ml of TNFα and a test compound. IL-6 and IL-8 in the supernatant were measured by the ELISA method, and PGE2 (prostaglandin E2) was measured by the EIA method.

IL-8 = experiment: Inhibition of IL-8 production by TNFα stimulation in synovial fibroblasts derived from a rheumatoid patient (ELISA); type: cell-based, human; conditions: for IC50: synovial fibroblasts, 10 ng/ml TNFα, 3 days, read-out: Inhibition against Mediator Release IC50(nM) IL-8
Experimental: as §1

PGE2 = experiment: Inhibition of PGE2 production by TNFα stimulation in synovial fibroblasts derived from a rheumatoid patient (EIA); type: cell-based, human; conditions: for IC50: synovial fibroblasts, 10 ng/ml TNFα, 3 days, read-out: Inhibition against Mediator Release IC50(nM) PGE2
Experimental: as §1

[1] = test system: type II collagen induced arthritis; experiment: Inhibitory test against type II collagen induced arthritis in mice; type: in vivo, Balb/c mice; conditions: 10 mg/kg intraperitoneally once in two days; day 44; score of the control = 100%
Experimental: Balb/c mice were immunized with heterologous type II collagen and Freund's complete adjuvant by subcutaneous or intraperitoneal injection. At 21 days after the treatment, these mice were immunized again with heterologous type II collagen and Freund's incomplete adjuvant by subcutaneous or intraperitoneal injection to develop arthritis.
A test substance suspended in an appropriate diluent or the diluent alone (negative control) was administered intraperitoneally once in two days from the day of the first immunization, and as for arthritis developed after the second immunization, clinical symptoms of each ankle joint of all foots were recorded day after day as numerous scores. When the score of the control measured on day 44 after administration of 10 mg/kg of the medicament of the present invention was expresses as 100%, rates of exacerbation (%) of the clinical symptoms of arthritis were 37.5 (Compound No. 4), 76.5 (Compound No. 90), 56.2 (Compound No. 11), 64.0 (Compound No. 88), and 0.0 (Compound No. 83).

[2] = test system: myocardial ischemia reperfusion disorder; experiment: Inhibitory test against myocardial ischemia reperfusion disorder in rats; type: in vivo, rat; conditions: 5 mg/kg intraperitoneally; 24 hours after reperfusion
Experimental: Left coronary artery of 7 to 9 week-old rat was ligated to induce ischemic state. After 25 minutes, a test substance suspended in an appropriate diluent or the diluent alone (negative control) was intraperitoneally administered, and after 30 minutes, the animal was reperfused. After 24 hours, a rate of necrosis of an ischemic part of the cardiac muscle was measured.

[3] = test system: Vascular smooth muscle cells of normal coronary artery (Cryo CASMC); experiment: Inhibitory test against proliferation of vascular smooth muscle cells of normal coronary artery under proliferation stimulation (MTS assay); type: cell-based; conditions: FGF and EGF stimulation, 72 hours
Experimental: Vascular smooth muscle cells of normal coronary artery (Cryo CASMC) were cultured for 2 hours in the presence or absence of a test substance in DMEM medium containing 0.5% of FBS and insulin (5 u g/ml). Then, FGF and EGF were added for proliferation stimulation. The mixture was cultured for 72 hours and proliferation of the cells were measured by the MTS assay. The results aree shown in the following

Thy-1 nephritis = experiment: Rat Thy-1 nephritis model; type: in vivo; conditions: intraperitoneal administration of less than 15 mg/kg
[4] = test system: intestinal ischemic reperfusion-caused hepatopathy; experiment: Rat intestinal ischemic reperfusion-caused hepatopathy model; type: in vivo; conditions: intraperitoneal administration of 10 mg/kg
myocarditis = experiment: Rat myocarditis model immunized with pig heart-derived cardiac myosin; type: in vivo; conditions: intraperitoneal administration at 10 mg/kg
[5] = test system: artery abrasion restenosis; experiment: Mouse artery abrasion restenosis model; type: in vivo; conditions: intraperitoneal administration at 10 mg/kg
[6] = Homo sapiens, 1 μg/mL, HepG2, TNF-α (40 ng/ml), 4 hours, read-out: Inhibitory Ratio of NF-κ B Activation(%) Drug Concentration 1 μg/mL
[7] = Homo sapiens, 10 μg/mL, HepG2, TNF-α (40 ng/ml), 4 hours, read-out: Inhibitory Ratio of NF-κ B Activation(%) Drug Concentration 10 μg/mL
[8] = rheumatic patient-derived synovial fibroblasts under TNFα stimulation

O=C(Nc1cc(C(F)(F)F)cc(C(F)(F)F)c1)c1cc(C(=O)N2CCC(Cc3ccccc3)CC2)ccc1O [Compound No. 40, N-[3,5-Bis(trifluoromethyl)phenyl]-2-hydroxy-5-(4-benzylpiperidine-1-carbonyl)benzamide]
inhibition at 1 µg/mL (NF-κ B; [6]): 44.9% | inhibition at 10 µg/mL (NF-κ B; [7]): 96% | melting point: 179 to 180 °C

O=C(Nc1cc(C(F)(F)F)cc(C(F)(F)F)c1)c1cc(Cl)ccc1O [Compound No.4, N-[3,5-bis(trifluoromethylphenyl)]-5-chloro-2-hydroxybenzamide]
inhibition at 0.1 µg/mL (NF-κ B; Homo sapiens, HepG2, 4 h, 0.1 μg/ml, comparison table, reporter assay, read-out: Inhibitory Ratio of NF-κB Activation (%) 0.1 μg/ml): 60.9% | inhibition at 1 µg/mL (NF-κ B; Homo sapiens, HepG2, 4 h, 1 μg/ml, comparison table, reporter assay, read-out: Inhibitory Ratio of NF-κB Activation (%) 1 μg/ml): 95.7% | inhibition at 10 µg/mL (NF-κ B; Homo sapiens, HepG2, 4 h, 10 μg/ml, comparison table, reporter assay, read-out: Inhibitory Ratio of NF-κB Activation (%) 10 μg/ml): 97.5% | inhibition at 1 µg/mL (NF-κ B; [6]): 95.7% | inhibition at 10 µg/mL (NF-κ B; [7]): 97.5% | IC50 (IL-6; Homo sapiens, Fibroblast, 72 h): 294 nM | IC50 (IL-8; Homo sapiens, Fibroblast, 72 h): 450 nM | IC50 (PGE2; Homo sapiens, Fibroblast, 72 h): 388 nM | rates of exacerbation (%) of the clinical symptoms of arthritis [1]: 37.5% | inhibition of the necrosis of the cardiac muscle in comparison with the control [2]: 60% | Inhibitory Ratio of Proliferation(%) Compound Concentration 250 nM [3]: 87.9% | Inhibitory Ratio of Proliferation(%) Compound Concentration 500 nM [3]: 92.2% | renal protective action (Thy-1 nephritis): exhibited a renal protective action | TNFα concentration in blood [4]: lowered | endotoxic levels in blood [4]: lowered endotoxic levels | inhibition of hepatopathy [4]: significantly inhibited hepatopathy | inhibition of the onset of myocarditis (myocarditis): significantly also inhibited the onset of myocarditis | inhibition of proliferation of vascular endothelial cells and vascular smooth muscle cells [5]: significantly inhibited proliferation of vascular endothelial cells and vascular smooth muscle cells

O=C(Nc1cc(C(F)(F)F)ccc1C(F)(F)F)c1cc(Br)ccc1O [Compound No. 83]
Inhibitory Ratio of NF-κ B Activation(%) Drug Concentration 1 μg/mL (NF-κ B; 1 μg/mL, HepG2, TNF-α (40 ng/ml), 4 hours): 95.7% | Inhibitory Ratio of NF-κ B Activation(%) Drug Concentration 10 μg/mL (NF-κ B; 10 μg/mL, HepG2, TNF-α (40 ng/ml), 4 hours): 98.3% | inhibition of the production of IL-6 (in words) (IL-6; [8]): potently inhibited; also recorded: strongly inhibited | IC50 (IL-6): < 10 nM | inhibition of the production of IL-8 (in words) (IL-8; [8]): potently inhibited; also recorded: strongly inhibited | IC50 (IL-8): 62 nM | inhibition of the production of PGE2 (in words) (PGE2; [8]): potently inhibited; also recorded: strongly inhibited | IC50 (PGE2): < 10 nM | rates of exacerbation (%) of the clinical symptoms of arthritis [1]: 0.0% | Inhibitory Ratio of Proliferation(%) Compound Concentration 250 nM [3]: 27.1% | Inhibitory Ratio of Proliferation(%) Compound Concentration 500 nM [3]: 87.9%

CC(=O)Oc1ccccc1C(=O)Nc1cc(Cl)cc(Cl)c1 [Compound No. 120, 2-acetoxy-N-(3,5-dichlorophenyl)benzamide]
inhibition at 1 µg/mL (NF-κ B; [6]): 88.6% | inhibition at 10 µg/mL (NF-κ B; [7]): 97.5% | melting point: 218 to 219 °C
